Here are results for two compounds from paper PMC12412326, “Cloning and Functional Characterization of a Novel Brevinin-1-Type Peptide from Sylvirana guentheri with Anticancer Activity” (Current Issues in Molecular Biology, 2025).

Read-outs that look alike come from different tables or passages of the source. Ends that are not written are not given here. Peptide text beside a SMILES is read from it.

For data set [1], the system named is human cancer cell lines (A549, AGS, Jurkat, HCT116, HL60, HepG2). It is filed as cell-based. The protocol: (§1) The cytotoxic effects of brevinin-1 E8.13 were evaluated in six human cancer cell lines: A549 (lung), AGS (stomach), Jurkat (blood), HCT116 (colon), HL60 (blood), and HepG2 (liver). All cell lines were cultured in either DMEM or RPMI-1640 medium supplemented with 10% fetal bovine serum (FBS) and 1% penicillin–streptomycin, under conditions of 5% CO2 at 37 °C. The 3-(4,5-dimethylthiazol-2-yl)-2,5-diphenyltetrazolium bromide (MTT) assay was used to assess cell viability. Cells were seeded at a density of 10^4 cells per well in 96-well plates and incubated at 37 °C. After 72 h of treatment with the peptide, 10 µL of MTT reagent (Merck, Darmstadt, Germany) in PBS, pH 7.0 was added to each well and incubated for 4 h. Following supernatant removal, 100 µL of dimethyl sulfoxide (DMSO, Merck, Germany) was added to dissolve the resulting formazan crystals. Absorbance was measured at 570 nm using a microplate reader. Each experimental condition was performed in triplicate. The cytotoxicity of the peptide was also evaluated in normal human dermal fibroblast cells using the same assay.

Data set [2] can be described thus: Circular dichroism, secondary structure estimated with CDNN 2.1. It is filed as physicochemical. Conditions: 0.3 mg/mL in deionized water, CDNN 2.1, 190–260 nm range. The protocol:
The CD spectrum of the peptide brevinin-1 E8.13 was measured to evaluate its secondary structure. The peptide was dissolved in deionized water at a concentration of 0.3 mg/mL. Measurements were performed using a ChiraScan™ Circular Dichroism Spectrometer (Applied Photophysics, Leatherhead, Surrey, UK) with a quartz cuvette of 1 mm path length. The CD spectra were recorded over a wavelength range of 180–260 nm using the default instrument settings recommended by the manufacturer (scanning speed, integration time, and bandwidth). Each sample was measured three consecutive times, and the solvent-corrected average spectrum was used for analysis. The resulting spectra were processed using the CDNN 2.1 (Circular Dichroism Neural Network) software to estimate the proportions of secondary structural elements, including α-helix, β-sheet, β-turn, and random coil.

The next data set has as its system Staphylococcus aureus. It is filed as cell-based. Particulars: for MIC S. aureus: 24 h. The procedure:
(§2) The antibacterial activity of brevinin-1 E8.13 was evaluated against six bacterial strains, including two Gram-positive species (Staphylococcus aureus and Bacillus subtilis) and four Gram-negative species (Escherichia coli, Acinetobacter baumannii, Klebsiella pneumoniae, and Pseudomonas aeruginosa). All strains were isolated and identified by the Department of Microbiology, Thanh Nhan Hospital (Hanoi, Vietnam), and are currently maintained at the Laboratory of Cell Biotechnology and Bioassay, Institute of Biology, Vietnam Academy of Science and Technology (VAST).
(§3) Each bacterial strain was first cultured overnight in Luria–Bertani (LB) broth. Then, 100 μL of the overnight culture was transferred to 5 mL of fresh LB broth and incubated at 37 °C with shaking until reaching the logarithmic growth phase. Cultures were adjusted to a concentration of 10^6 colony-forming units (CFU)/mL and dispensed into 96-well plates. The peptide was added at final concentrations ranging from 24.8 μM to 0.4 μM. After 24 h of incubation at 37 °C, bacterial growth was quantified by measuring optical density (OD) at 600 nm using a Synergy HT microplate reader (BioTek, Winooski, VT, USA). All concentrations were tested in triplicate.

The test system of another data set is Bacillus subtilis. It is filed as cell-based. The procedure:
as §2, §3

A further data set relates to Escherichia coli. It is filed as cell-based. The protocol:
as §2, §3

Another data set relates to Klebsiella pneumoniae. The data set is described as follows: Antibacterial activity (MIC, broth dilution in 96-well plates). Type of data set: cell-based. Conditions: LB broth, 10^6 CFU/mL, 24 h at 37 °C, OD 600 nm, triplicate. The procedure:
as §2, §3

A further data set has as its system Acinetobacter baumannii. The data set is described as above. Type of data set: cell-based. Particulars: LB broth, 10^6 CFU/mL, 24 h at 37 °C, OD 600 nm, triplicate. The protocol:
as §2, §3

Another data set has as its system Pseudomonas aeruginosa. The data set is described as above. It is filed as cell-based. Conditions: LB broth, 10^6 CFU/mL, 24 h at 37 °C, OD 600 nm, triplicate. The procedure: as §2, §3
The test system of a further data set is Jurkat (blood) cells. Type of data set: cell-based, human. Conditions: 72 h. The procedure: as §1
A further data set concerns A549 (lung) cells. Type of data set: cell-based, human. Conditions: 72 h. The procedure:
as §1

Another data set has as its system HL60 (blood) cells. It is filed as cell-based, human. Conditions: 72 h. The protocol: as §1
A further data set deals with HCT116 (colon) cells. Type of data set: cell-based, human. Conditions: 72 h. The procedure:
as §1

For another data set, the system named is HepG2 (liver) cells. It is filed as cell-based, human. Particulars: 72 h. The procedure:
as §1

A further data set relates to AGS (stomach) cells. Type of data set: cell-based, human. Particulars: 72 h. The protocol:
as §1

[3] abbreviates: LB broth, 10^6 CFU/mL, 24 h at 37 °C, OD 600 nm, triplicate.

Consider `CC[C@H](C)[C@H](NC(=O)[C@H](C)NC(=O)[C@H](C)NC(=O)[C@@H]1CCCN1C(=O)[C@@H](NC(=O)[C@H](CC(C)C)NC(=O)[C@H](CCCCN)NC(=O)[C@H](CO)NC(=O)[C@H](C)NC(=O)[C@@H](NC(=O)[C@H](CCCCN)NC(=O)[C@H](Cc1ccccc1)NC(=O)[C@H](CC(C)C)NC(=O)[C@H](C)NC(=O)CNC(=O)[C@H](CC(C)C)NC(=O)[C@@H](N)Cc1ccccc1)C(C)C)C(C)C)C(=O)N[C@@H](CS)C(=O)N[C@@H](CO)C(=O)N[C@@H](Cc1ccccc1)C(=O)N[C@@H](CO)C(=O)N[C@@H](CCCCN)C(=O)N[C@@H](CCCCN)C(=O)N[C@@H](CS)C(N)=O` [Brevinin-1 E8.13] (H-FLGALFKVASKLVPAAICSFSKKC-NH2; N-terminus assumed), for which the IC50 in data set [1] (72 h) is 7.5 to 14.8 µM; with Jurkat (blood) cells, 12.9 µM; in the data set with A549 (lung) cells, 31.6 µM; with HL60 (blood) cells it was 14.8 µM; in the data set with HCT116 (colon) cells, 9.2 µM; with HepG2 (liver) cells it was 11.7 µM. This compound also had a half-maximal inhibitory concentration (IC50) with AGS (stomach) cells of 7.5 µM. The “Selectivity Index (SI) toward cancer cells” value in data set [1] (SI = IC50 (HDF) or HC50 / IC50 (cancer cells), result in words) was “moderate selectivity”. Moreover, in [2], the “Antiparallel β-sheet content (CD)” value is reported as 36.2%. Further, the “Random coil content (CD)” value in data set [2] is listed as 27.74%. Further, in [2], the “α-helix content (CD)” value was 11.83%. For the same compound, the “β-turn content (CD)” value in data set [2] is on record as 15.48%. Besides, the “MIC S. aureus” value in the data set with Staphylococcus aureus was found to be 1.5 µM. Moreover, in the data set with Staphylococcus aureus (SI = IC50 (HDF) or HC50 / MIC, result in words), the “Selectivity Index (SI) toward Staphylococcus aureus over normal cells” value was “high selectivity (SI > 10 reflects high selectivity)”. Moreover, in the data set on Bacillus subtilis (setting [3]), the “MIC B. subtilis” value was greater than 24.8 µM. Further, the “MIC E. coli” value in the data set on Escherichia coli (setting [3]) is greater than 24.8 µM. Further, the “MIC K. pneumonia” value in the data set on Klebsiella pneumoniae is greater than 24.8 µM. Besides, the “MIC A. baumanii” value in the data set with Acinetobacter baumannii is greater than 24.8 µM. The “MIC P. aeruginosa” value with Pseudomonas aeruginosa is greater than 24.8 µM.

As for “FAKWAFKWLKK-NH2 [GA-K4AL, reference compound]”, in the data set with Staphylococcus aureus, the “MIC S. aureus” value worked out at 2.5 µM. Further, the “MIC B. subtilis” value with Bacillus subtilis (24 h) is greater than 41.8 µM. Further, in the data set with Escherichia coli (24 h), the “MIC E. coli” value is 10.1 µM.
